In patent US20040014779A1, “Methods and compositions related to IRM compounds and toll-like recptor pathways” (3M Innovative Properties Company, priority 2001, published 2004):

What was measured:
[1] = molecular target: T1, TLR6 (Mus musculus, UniProt Q9EPW9); experiment: IRM-stimulated TNF-α production by RAW 264.7 cells overexpressing TLR6; type: cell-based, murine
T1 construct: expressed in transfected cells; host or cells: RAW 264.7 (pIRES vector)
Source text: (§1) The murine TLR wild-type vectors were generated by PCR amplification from RAW 264.7 cell cDNA with TLR6 specific primers (sense primer: SEQ ID NO 13; antisense primer: SEQ ID NO 14) or TLR7 specific primers (sense primer: SEQ ID NO 15; antisense primer: SEQ ID NO 16) by Pfu Turbo DNA polymerase kit (Stratagene, La Jolla, Calif.). The PCR products were inserted into pCR-Blunt II-TOPO for sequence verification and then subcloned into pIRES (BD Biosciences Clontech, Palo Alto, Calif.) for expression in mammalian cells.
(§2) THP-1 cells or RAW 264.7 cells were cultured and transfected with the wild type TLR 6 or wild type TLR 7 plasmids described above. The transfections were performed as in Example 1 with a 4:1 ratio of wild-type TLR to H2K plasmid (THP-1 cells) or CD4 (RAW 264.7 cells).
(§3) RAW 264.7 cells were stimulated with various concentrations of resiquimod and analyzed as described in Example 1. Results are provided in Table 4 and are expressed as fold increase in TNF-α production as compared to control transfected RAW 264.7 cells.

[2] = molecular target: T2, TLR7 (Mus musculus, UniProt P58681); experiment: IRM-stimulated TNF-α production by RAW 264.7 cells overexpressing TLR7; type: cell-based, murine
T2 construct: expressed in transfected cells; host or cells: RAW 264.7 (pIRES vector)
T2 sequence (P58681 27-1050): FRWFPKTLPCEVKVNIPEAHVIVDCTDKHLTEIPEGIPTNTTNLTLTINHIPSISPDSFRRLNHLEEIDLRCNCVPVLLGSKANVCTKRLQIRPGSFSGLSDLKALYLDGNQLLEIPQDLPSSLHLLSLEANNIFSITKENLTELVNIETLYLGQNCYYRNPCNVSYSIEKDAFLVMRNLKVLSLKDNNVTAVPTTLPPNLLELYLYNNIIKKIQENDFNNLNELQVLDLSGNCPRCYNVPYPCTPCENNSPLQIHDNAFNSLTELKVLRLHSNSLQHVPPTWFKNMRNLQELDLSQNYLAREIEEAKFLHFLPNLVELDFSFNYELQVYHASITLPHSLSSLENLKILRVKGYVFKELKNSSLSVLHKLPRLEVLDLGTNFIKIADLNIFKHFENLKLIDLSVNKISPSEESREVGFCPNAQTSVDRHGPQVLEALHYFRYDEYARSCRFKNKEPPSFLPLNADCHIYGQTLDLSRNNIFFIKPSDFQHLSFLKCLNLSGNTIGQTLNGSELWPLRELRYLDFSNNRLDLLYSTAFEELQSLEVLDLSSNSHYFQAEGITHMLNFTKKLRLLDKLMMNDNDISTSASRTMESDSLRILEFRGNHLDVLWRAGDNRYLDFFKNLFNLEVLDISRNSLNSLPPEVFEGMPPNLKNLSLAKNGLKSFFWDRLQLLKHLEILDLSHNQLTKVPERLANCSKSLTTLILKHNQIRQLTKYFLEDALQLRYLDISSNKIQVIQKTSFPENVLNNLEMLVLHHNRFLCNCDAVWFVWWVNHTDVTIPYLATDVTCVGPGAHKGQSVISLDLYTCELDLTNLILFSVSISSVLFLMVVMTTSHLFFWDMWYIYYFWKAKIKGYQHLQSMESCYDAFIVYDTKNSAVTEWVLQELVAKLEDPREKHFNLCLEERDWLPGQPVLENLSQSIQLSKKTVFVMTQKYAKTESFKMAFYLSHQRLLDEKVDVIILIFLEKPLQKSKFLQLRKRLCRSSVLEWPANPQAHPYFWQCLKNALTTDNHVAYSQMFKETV
Source text: as §1, §2, §3

[3] = system: TLR7; experiment: TNF-α production by THP-1 cells transfected with TLR7DN vs vector control; type: cell-based, human
Source text: The human TLR7 dominant negative construct was generated in a manner similar to that used to generate the human TLR6 dominant negative construct. The proline to histidine mutation for human was introduced at amino acid 932 along with a Bam HI restriction enzyme site (5′ sense: SEQ ID NO 9; 5′ antisense: SEQ ID NO 10; 3′ sense: SEQ ID NO 11; 3′ antisense: SEQ ID NO 12).
The amplified 5′ and 3′ sections of each human dominant negative TLR was inserted into pCR-Blunt II-TOPO for sequence verification. The 5′ and 3′ sections were joined together when subcloned into pIRES (Clontech, Palo Alto, Calif.) for expression in mammalian cells.
THP-1 cells (maintained at cell number less than 1×10^6 cells/ml) were co-transfected with the plamid vector containing either the TLR6DN or TLR7DN construct and with a murine H2K^k plasmid (Miltenyi Biotec Inc., Auburn, Calif.) in a 4:1 ratio of TLR plasmid to H2K^k plasmid. Transfection of THP-1 cells was carried out using the transfection reagent FuGENE 6 (Roche Diagnostics Corp., Indianapolis, Ind.) according to the manufacturer's specifications. […]
TNF-α levels were measured with a commercial Human TNF-α ELISA kit (Biosource International, Inc., Camarillo, Calif.) according to the manufacturer's specifications. […]

T1 sequence (Q9EPW9 28-795): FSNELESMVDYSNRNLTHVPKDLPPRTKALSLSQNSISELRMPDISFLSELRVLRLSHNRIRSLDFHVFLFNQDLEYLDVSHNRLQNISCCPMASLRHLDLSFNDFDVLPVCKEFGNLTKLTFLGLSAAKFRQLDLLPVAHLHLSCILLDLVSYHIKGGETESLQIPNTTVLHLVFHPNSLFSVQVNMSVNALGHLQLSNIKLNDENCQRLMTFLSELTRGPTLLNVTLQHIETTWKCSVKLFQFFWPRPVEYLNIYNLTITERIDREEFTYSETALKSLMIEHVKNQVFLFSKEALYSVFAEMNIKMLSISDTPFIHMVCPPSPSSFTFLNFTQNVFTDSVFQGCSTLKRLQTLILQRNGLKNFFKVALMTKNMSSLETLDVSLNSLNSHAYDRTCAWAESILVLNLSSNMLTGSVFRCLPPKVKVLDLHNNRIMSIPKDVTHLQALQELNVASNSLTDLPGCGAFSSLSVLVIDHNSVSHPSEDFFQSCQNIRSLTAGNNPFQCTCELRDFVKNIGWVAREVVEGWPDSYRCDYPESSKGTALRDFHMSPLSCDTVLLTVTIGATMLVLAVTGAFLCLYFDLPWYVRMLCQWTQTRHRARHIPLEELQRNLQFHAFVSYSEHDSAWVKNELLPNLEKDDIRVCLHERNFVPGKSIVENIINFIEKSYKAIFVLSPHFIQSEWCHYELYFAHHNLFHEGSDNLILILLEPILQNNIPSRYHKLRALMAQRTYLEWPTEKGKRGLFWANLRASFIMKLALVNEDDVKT
T1 sequence (Q9QUN7 25-784 partner): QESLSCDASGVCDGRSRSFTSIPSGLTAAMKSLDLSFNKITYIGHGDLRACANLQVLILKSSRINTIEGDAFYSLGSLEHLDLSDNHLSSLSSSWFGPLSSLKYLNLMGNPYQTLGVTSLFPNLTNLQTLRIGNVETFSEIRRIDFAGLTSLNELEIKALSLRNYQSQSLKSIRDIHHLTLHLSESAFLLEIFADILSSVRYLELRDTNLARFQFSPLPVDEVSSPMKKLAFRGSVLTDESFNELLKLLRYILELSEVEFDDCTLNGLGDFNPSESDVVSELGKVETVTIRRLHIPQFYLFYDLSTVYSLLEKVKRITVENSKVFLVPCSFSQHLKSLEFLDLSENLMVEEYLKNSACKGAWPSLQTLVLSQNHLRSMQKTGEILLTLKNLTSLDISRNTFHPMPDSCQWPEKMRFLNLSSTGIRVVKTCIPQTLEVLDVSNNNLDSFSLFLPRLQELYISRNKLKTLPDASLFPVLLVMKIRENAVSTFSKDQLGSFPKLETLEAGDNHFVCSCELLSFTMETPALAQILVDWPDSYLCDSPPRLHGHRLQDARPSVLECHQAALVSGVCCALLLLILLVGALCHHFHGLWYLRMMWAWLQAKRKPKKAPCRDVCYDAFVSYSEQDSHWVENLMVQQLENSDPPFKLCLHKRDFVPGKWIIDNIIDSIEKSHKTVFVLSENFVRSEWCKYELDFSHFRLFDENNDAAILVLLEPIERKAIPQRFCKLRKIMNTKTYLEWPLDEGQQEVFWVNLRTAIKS

Fold increase in TNF-α production over control, TLR6 ([1]; RAW 264.7 overexpressing TLR6, 0.0004 μM): 9.6 fold
Fold increase in TNF-α production over control, TLR6 ([1]; RAW 264.7 overexpressing TLR6, 0.001 μM): 8.0 fold
Fold increase in TNF-α production over control, TLR6 ([1]; RAW 264.7 overexpressing TLR6, 0.004 μM): 9.2 fold
Fold increase in TNF-α production over control, TLR6 ([1]; RAW 264.7 overexpressing TLR6, 0.012 μM): 3.5 fold
Fold increase in TNF-α production over control, TLR6 ([1]; RAW 264.7 overexpressing TLR6, 0.037 μM): 3.9 fold
Fold increase in TNF-α production over control, TLR6 ([1]; RAW 264.7 overexpressing TLR6, 1 μM): 1.4 fold
Fold increase in TNF-α production over control, TLR6 ([1]; RAW 264.7 overexpressing TLR6, 3 μM): 1.7 fold
Fold increase in TNF-α production over control, TLR6 ([1]; RAW 264.7 overexpressing TLR6, 10 μM): 1.8 fold
TLR6 agonist character (in words) ([1]; from TLR6 overexpression in RAW 264.7 cells): agonist
Fold increase in TNF-α production over control, TLR7 ([2]; RAW 264.7 overexpressing TLR7, 0.0004 μM): 14.8 fold
Fold increase in TNF-α production over control, TLR7 ([2]; RAW 264.7 overexpressing TLR7, 0.001 μM): 8.9 fold
Fold increase in TNF-α production over control, TLR7 ([2]; RAW 264.7 overexpressing TLR7, 0.004 μM): 5.8 fold
Fold increase in TNF-α production over control, TLR7 ([2]; RAW 264.7 overexpressing TLR7, 0.012 μM): 3.8 fold
Fold increase in TNF-α production over control, TLR7 ([2]; RAW 264.7 overexpressing TLR7, 0.037 μM): 3.5 fold
Fold increase in TNF-α production over control, TLR7 ([2]; RAW 264.7 overexpressing TLR7, 1 μM): 1.3 fold
Fold increase in TNF-α production over control, TLR7 ([2]; RAW 264.7 overexpressing TLR7, 3 μM): 1.0 fold
Fold increase in TNF-α production over control, TLR7 ([2]; RAW 264.7 overexpressing TLR7, 10 μM): 1.5 fold
TLR7 agonist character (in words) ([2]; from TLR7 overexpression in RAW 264.7 cells): agonist
Compound: CCOCc1nc2c(N)nc3ccccc3c2n1CC(C)(C)O [Resiquimod, 4-amino-2-ethoxymethyl-α,α-dimethyl-1H-imidazo[4,5-c]quinoline-1-ethanol]
Effect of TLR7DN on stimulus-induced TNF-α production (in words) ([3]; compared to control vector): inhibited
TLR7DN % inhibition of TNF-α production ([3]; stimulus 3 μM, 18 hours, relative to vector control): 55.3%
